From patent US20030162762A1, “Novel cephalosporin compounds and process for preparing the same” (priority 2000, published 2003)
Converted amounts (≈) assume the structure as drawn. Read-outs that look alike come from different tables or passages of the source.

Legend:
Assay in all cases: Minimum Inhibitory Concentration (MIC), agar dilution, standard strains
E. faecalis EFS004 = format: cell-based; conditions: Table 2, Mueller-Hinton agar, 37° C., 20 hours
Method: (§1) The effectiveness of the compound according to the present invention was determined by obtaining Minimum Inhibitory Concentration (MIC) of the compounds prepared by the above examples (Compounds I-1 to I-41) and vancomycin, which is the known compound having a potent activity against gram-positive strains, as the control drug against the standard strains. Specifically, Minimum Inhibitory Concentration was obtained by diluting the test compound according to a double dilution method, dispersing them in Mueller-Hinton agar medium, inoculating each of the test strain having 10^7 cfu (colony forming unit) per ml in an amount of 2 μl to the medium and then incubating them at 37° C. for 20 hours. From the result of Minimum Inhibitory Concentration test, it can be seen that the compound according to the present invention has a good activity against major pathogenic microorganisms, which cause hospital infection, including MRSA strains.

S. epidermidis R005 = format: cell-based; conditions: Mueller-Hinton agar, 37° C., 20 hours; for MIC: Staphylococcus epidermidis, R005, read-out: Minimum Inhibitory Concentration, S. epidermidis R005
Method: as §1

[1] = test system: Staphylococcus aureus giorgio; format: cell-based; conditions: Mueller-Hinton agar, 37° C., 20 hours; for MIC: Staphylococcus aureus, read-out: Minimum Inhibitory Concentration, Staphylococcus aureus giorgio
Method: as §1

S. aureus 77 = format: cell-based, Staphylococcus aureus; conditions: Mueller-Hinton agar, 37° C., 20 hours; for MIC: Staphylococcus aureus, 77, read-out: Minimum Inhibitory Concentration, S. aureus 77
Method: as §1

S. aureus K311 = format: cell-based, Staphylococcus aureus; conditions: Table 2, Mueller-Hinton agar, 37° C., 20 hours
Method: as §1

E. faecalis L239 = format: cell-based; conditions: Table 1, Mueller-Hinton agar, 37° C., 20 hours; for MIC: Enterococcus faecalis, L239, read-out: Minimum Inhibitory Concentration, E. faecalis L239
Method: as §1

S. aureus 241 = format: cell-based, Staphylococcus aureus; conditions: Table 1, Mueller-Hinton agar, 37° C., 20 hours; for MIC: Staphylococcus aureus, 241, read-out: Minimum Inhibitory Concentration, S. aureus 241
Method: as §1

Row | Compound | Minimum Inhibitory Concentration, E. faecalis L239 (E. faecalis L239) [µg/mL] | Minimum Inhibitory Concentration, S. epidermidis R005 (S. epidermidis R005; Table 1) [µg/mL] | Minimum Inhibitory Concentration, Staphylococcus aureus giorgio ([1]; Table 1) [µg/mL] | Minimum Inhibitory Concentration, S. aureus 241 (S. aureus 241) [µg/mL] | Minimum Inhibitory Concentration, S. aureus 77 (S. aureus 77; Table 1) [µg/mL] | further results
1 | CC[n+]1c(N)cc(N)nc1SC/C=C/C1=C(C(=O)O)N2C(=O)[C@@H](NC(=O)CSc3cc(Cl)nc(Cl)c3)[C@H]2SC1 [Compound I-16, 4,6-diamino-2-({(E)-3-[(6R,7R)-2-carboxy-7-({2-[(2,6-dichloro-4-pyridinyl)sulfanyl]acetyl}amino)-8-oxo-5-thia-1-azabicyclo[4.2.0]oct-2-en-3-yl]-2-propenyl}sulfanyl)-1-ethylpyrimidin-1-ium] | – | – | – | – | – | Minimum Inhibitory Concentration, E. faecalis EFS004 (E. faecalis EFS004): 0.5 µg/mL; Minimum Inhibitory Concentration, S. epidermidis R005 (S. epidermidis R005; Table 2): 0.13 µg/mL; Minimum Inhibitory Concentration, Staphylococcus aureus giorgio ([1]; Table 2): <0.008 µg/mL; Minimum Inhibitory Concentration, S. aureus 77 (S. aureus 77; Table 2): 0.13 µg/mL; Minimum Inhibitory Concentration, S. aureus K311 (S. aureus K311): 0.5 µg/mL
2 | Nc1nc(O)cc(SC/C=C/C2=C(C(=O)O)N3C(=O)[C@@H](NC(=O)CSc4cc(Cl)nc(Cl)c4)[C@H]3SC2)n1 [Compound I-10, (6R,7R)-3-{(E)-3-[(2-amino-6-hydroxy-4-pyrimidinyl)sulfanyl]-1-propenyl}-7-({2-[(2,6-dichloro-4-pyridinyl)sulfanyl]acetyl}amino)-8-oxo-5-thia-1-azabicyclo [4.2.0]oct-2-ene-2-carboxylic acid] | – | – | – | – | – | MIC (E. faecalis EFS004; Enterococcus faecalis, EFS004, read-out: Minimum Inhibitory Concentration, E. faecalis EFS004): 1 µg/mL (≈ 1.66 µM); MIC (S. epidermidis R005; Table 2): 0.25 µg/mL (≈ 0.416 µM); MIC ([1]; Table 2): 0.016 µg/mL (≈ 0.0266 µM); MIC (S. aureus 77; Table 2): 0.25 µg/mL (≈ 0.416 µM); MIC (S. aureus K311; Staphylococcus aureus, K311, read-out: Minimum Inhibitory Concentration, S. aureus K311): 0.5 µg/mL (≈ 0.831 µM)
3 | CNCc1c(N)nc(SC/C=C/C2=C(C(=O)O)N3C(=O)[C@@H](NC(=O)CSc4cc(Cl)ccc4Cl)[C@H]3SC2)[n+](C)c1N [Compound I-23, (6R,7R)-4,6-diamino-2-({(E)-3-[2-carboxy-7-({2-[(2,5-dichlorophenyl)sulfanyl]acetyl}amino)-8-oxo-5-thia-1-azabicyclo[4.2.0]oct-2-en-3-yl]-2-propenyl}sulfanyl)-1-methyl-5-[(methylamino)methyl]pyrimidin-1-ium] | 1 | 0.25 | 0.016 | 4 | 0.25 | –
4 | O=C(CSc1cc(Cl)ccc1Cl)N[C@@H]1C(=O)N2C(C(=O)O)=C(/C=C/CSc3ncnc4[nH]ncc34)CS[C@H]12 [Compound I-27] | 0.13 | 0.13 | <0.008 | 2 | 0.13 | –
5 | CSc1nc(C)cc(SC/C=C/C2=C(C(=O)O)N3C(=O)[C@@H](NC(=O)CSc4cc(Cl)ccc4Cl)[C@H]3SC2)n1 [Compound I-28, (6R,7R)-7-({2-[(2,5-dichlorophenyl)sulfanyl]acetyl}amino)-3-((E)-3-{[6-methyl-2-(methylsulfanyl)-4-pyrimidinyl]sulfanyl}-1propenyl)-8-oxo-5-thia-1-azabicyclo [4.2.0]oct-2-ene-2-carboxylic acid] | – | – | – | – | – | MIC (E. faecalis L239): 0.5 µg/mL (≈ 0.794 µM); MIC (S. epidermidis R005; Table 1): 0.25 µg/mL (≈ 0.397 µM); MIC ([1]; Table 1): 0.016 µg/mL (≈ 0.0254 µM); MIC (S. aureus 241): 32 µg/mL (≈ 50.8 µM); MIC (S. aureus 77; Table 1): 0.25 µg/mL (≈ 0.397 µM)
6 | Nc1nc[n+](C/C=C/C2=C(C(=O)O)N3C(=O)[C@@H](NC(=O)CSc4cc(Cl)ccc4Cl)[C@H]3SC2)c2c1CCC2 [Compound I-34] | 1 | 0.13 | <0.008 | 4 | 0.5 | –
7 | CC[n+]1c(N)cc(N)nc1SC/C=C/C1=C(C(=O)O)N2C(=O)[C@@H](NC(=O)CSc3cc(Cl)ccc3Cl)[C@H]2SC1 [Compound I-29, (6R,7R)-4,6-diamino-2-({(E)-3-[2-carboxy-7-({2-[(2,5-dichlorophenyl)sulfanyl]acetyl}amino)-8-oxo-5-thia-1-azabicyclo[4.2.0]oct-2-en-3-yl]-2-propenyl}sulfanyl)-1-ethylpyrimidin-1-ium] | 0.13 | 0.031 | <0.008 | 1 | 0.063 | –
8 | Cc1c(N)nc[n+](C/C=C/C2=C(C(=O)O)N3C(=O)[C@@H](NC(=O)CSc4cc(Cl)ccc4Cl)[C@H]3SC2)c1N [Compound I-31] | 2 | 0.25 | 0.016 | 8 | 1 | –
9 | Nc1cc[n+](N)c(SC/C=C/C2=C(C(=O)O)N3C(=O)[C@@H](NC(=O)CSc4cc(Cl)ccc4Cl)[C@H]3SC2)n1 [Compound I-4, 1,4-diamino-2-({(E)-3-[(6R,7R)-2-carboxy-7-({2-[(2,5-dichlorophenyl)sulfanyl]acetyl}amino)-8-oxo-5-thia-1-azabicyclo[4.2.0]oct-2-en-3-yl]-2-propenyl}sulfanyl) pyrimidin-1-ium] | 0.5 | 0.13 | <0.008 | 1 | 0.13 | –
10 | Nc1nc(O)cc(SC/C=C/C2=C(C(=O)O)N3C(=O)[C@@H](NC(=O)CSc4cc(Cl)ccc4Cl)[C@H]3SC2)n1 [Compound I-1, (6R,7R)-3-{(E)-3-[(2-amino-6-hydroxy-4-pyrimidinyl)sulfanyl]-1-propenyl}-7-({2-[(2,5-dichlorophenyl)sulfanyl]acetyl}amino)-8-oxo-5-thia-1-azabicyclo[4.2.0]oct-2-ene-2-carboxylic acid] | – | – | – | – | – | MIC (E. faecalis L239): 0.25 µg/mL (≈ 0.416 µM); MIC (S. epidermidis R005; Table 1): 0.13 µg/mL (≈ 0.216 µM); MIC ([1]; Table 1): < 0.008 µg/mL; MIC (S. aureus 241): 4 µg/mL (≈ 6.66 µM); MIC (S. aureus 77; Table 1): 0.25 µg/mL (≈ 0.416 µM)
11 | Nc1cc[n+](N)c(SCC2=C(C(=O)O)N3C(=O)[C@@H](NC(=O)CSc4cc(Cl)ccc4Cl)[C@H]3SC2)n1 [Compound I-6, 1,4-diamino-2-({[(6R,7R)-2-carboxy-7-({2-[(2,5-dichlorophenyl)sulfanyl]acetyl}amino)-8-oxo-5-thia-1-azabicyclo[4.2.0]oct-2-en-3-yl]methyl}sulfanyl)pyrimidin-1-ium] | 4 | 0.063 | <0.008 | 4 | 0.031 | –
12 | Nc1cc(SC/C=C/C2=C(C(=O)O)N3C(=O)[C@@H](NC(=O)CSc4cc(Cl)ccc4Cl)[C@H]3SC2)nc(N)n1 [Compound I-3, (6R,7R)-3-{(E)-3-[(2,6-diamino-4-pyrimidinyl)sulfanyl]-1-propenyl}-7-({2-[(2,5-dichlorophenyl)sulfanyl]acetyl}amino)-8-oxo-5-thia-1-azabicyclo[4.2.0]oct-2-ene-2-carboxylic acid] | – | – | – | – | – | MIC (E. faecalis L239): 0.5 µg/mL (≈ 0.834 µM); MIC (S. epidermidis R005; Table 1): 0.13 µg/mL (≈ 0.217 µM); MIC ([1]; Table 1): < 0.008 µg/mL; MIC (S. aureus 241): 4 µg/mL (≈ 6.67 µM); MIC (S. aureus 77; Table 1): 0.13 µg/mL (≈ 0.217 µM)
